Reference: patent US20110045073A1, “METHODS AND COMPOSITIONS OF SPHINGOLIPID FOR PREVENTING AND TREATING MICROBIAL INFECTIONS” (priority 2008, published 2011)

Tests used:
Type in all cases: cell-based, Candida albicans
[1] = test system: C. albicans; assay: synergism between histatin 5 and PHS: PI fluorescence after PHS preincubation, energy-rich (NaCl) or energy-depleted (NaN3); conditions: for extent of additional increase in PI-fluorescence on addition of Hst5: 25 μM PHS preincubation
Procedure: C. albicans (ATTC 10231), cultured aerobically at 30° C. on Sabouraud dextrose agar plates (SDA, Oxoid, Hampshire, UK) was suspended in 25 ml of Sabouraud dextrose broth in a 100 ml erlenmeyer flask. After 20 h of incubation at 30° C., 1 ml from this suspension was sub-cultured for 1-2 h in 20 ml of Sabouraud dextrose broth, to obtain a mid-log phase culture. Cells were washed twice in 1 mM potassium phosphate (PPB) or 5 mM Tris (pH 7.2), and resuspended in the same buffer to a cell density of 2 McFarland (McF) (approximately 10^7 cells/ml). Cells were suspended in 5 mM Tris buffer (pH 7.2), supplemented with either 5 mM NaCl or 5 mM NaN3. These suspensions were subsequently incubated with 0, 10, 50 and 100 μM PHS dissolved in 5 mM Tris buffer. After 60 minutes of incubation at 30° C., PI was added, and subsequently dilution series of Hst 5 in the corresponding buffer were added. Final concentration of PI was 10 μM, final concentrations of Hst5 ranged between 0 and 50 μM, final cell density was 10^7 cells/ml and final PHS concentrations were 0, 5, 25 and 50 μM. After 0, 20, 40 and 60 minutes the PI fluorescence was monitored at excitation and emission wavelengths of 544 and 620 nm, respectively, in a Fluostar Galaxy microplate fluorimeter (BMFG Labtechnologies, Offenburg, Germany).

[2] = test system: C. albicans (ATTC 10231); assay: microdilution viability assay (plate assay, CFU count); conditions: 1 mM PPB, 60 min at 30° C., CFUs counted
Procedure: C. albicans (ATTC 10231), cultured aerobically at 30° C. on Sabouraud dextrose agar plates (SDA, Oxoid, Hampshire, UK) was suspended in 25 ml of Sabouraud dextrose broth in a 100 ml erlenmeyer flask. After 20 h of incubation at 30° C., 1 ml from this suspension was sub-cultured for 1-2 h in 20 ml of Sabouraud dextrose broth, to obtain a mid-log phase culture. Cells were washed twice in 1 mM potassium phosphate (PPB) or 5 mM Tris (pH 7.2), and resuspended in the same buffer to a cell density of 2 McFarland (McF) (approximately 10^7 cells/ml). The effects of PHS and Hst5 on the viability of C. albicans were determined in a microdilution viability assay. 50 μl aliquots from a mid-log phase culture of C. albicans were incubated with equal volumes of either peptide or PHS solutions (0.3 to 100 μM) and incubated at 30° C. for 60 min. The incubation mixtures were appropriately diluted (200- to 500-fold) in PBS and 25 μl aliquots were plated on SDA. After 48 h incubation at 30° C. the numbers of CFUs were counted. All experiments were repeated at least three times in duplo. The effect of PHS-treatment on the viability of C. albicans was determined in a micro-dilution viability assay, at the concentration range 0-500 μM (FIG. 1). For comparison the effect of treatment with Hst5 (0-50 μM) is shown. […]

[3] = test system: C. albicans (ATTC 10231); assay: membrane-disruptive activity, propidium iodide fluorescence (PI assay); conditions: 1 mM PPB, after 15 and 60 minutes
Procedure: C. albicans (ATTC 10231), cultured aerobically at 30° C. on Sabouraud dextrose agar plates (SDA, Oxoid, Hampshire, UK) was suspended in 25 ml of Sabouraud dextrose broth in a 100 ml erlenmeyer flask. After 20 h of incubation at 30° C., 1 ml from this suspension was sub-cultured for 1-2 h in 20 ml of Sabouraud dextrose broth, to obtain a mid-log phase culture. Cells were washed twice in 1 mM potassium phosphate (PPB) or 5 mM Tris (pH 7.2), and resuspended in the same buffer to a cell density of 2 McFarland (McF) (approximately 10^7 cells/ml).
Membrane-disruptive activity of Hst5 and phytosphingosine (PHS) was determined by monitoring the fluorescence enhancement of propidium iodide (Invitrogen, Breda, The Netherlands) in Hst5- or PHS treated cells. The membrane impermeant propidium iodide (PI) only enters membrane-compromised cells, after which the fluorescence of this probe is enhanced 20-30-fold due to its binding to nucleic acids.
Cells obtained by the method described above were suspended in 1 mM PPB buffer (pH 7.2) supplemented with PI (final concentration 10 μM) and subsequently added to two-fold serial dilutions of Hst5 (50 μM down to 0.045 μM) or PHS (500 down to 0.5 μM). Final cell density in the assay was 1 McF. […]

Compound	PI fluorescence induced by PHS preincubation alone ([1]; 25 μM PHS in the presence of NaN3, vs control with NaCl)	effect of PHS pretreatment on sensitivity of C. albicans to Hst5 ([1]; non-lethal dosages PHS, in particular energy-depleted conditions)	effect of PHS preincubation on Hst5-mediated influx of PI ([1]; preincubation with 25 or 50 μM PHS, NaCl, 6.1 μM Hst5, relative to 0 μM PHS)	concentration at which complete killing was reached [2]	extent of additional increase in PI-fluorescence on addition of Hst5 ([1]; NaCl control (energy-rich))	extent of additional increase in PI-fluorescence on addition of Hst5 ([1]; NaN3 (energy-depleted))	effect of energy-depletion on sensitivity of C. albicans to the substance ([1]; 5 mM NaN3 vs 5 mM NaCl in 5 mM Tris, t=0 and t=20 min)	lowest Hst5 concentration with immediate additional increase in PI fluorescence ([1]; after pre-incubation with 25 μM PHS, NaCl, t=0)	concentration needed to induce uptake of PI, Hst5 compared with PHS [3]
CCCCCCCCCCCCCC[C@@H](O)[C@@H](O)[C@@H](N)CO [PHS, phytosphingosine]	induces an increase in PI fluorescence, comparable to that of the control	increases its sensitivity to Hst5	instantaneously accelerates the Hst5-mediated influx of PI	250 µM					
histatin 5 (DSHAKRHHGYKRKFHEKHHSHRGY) [Hst5]				10 µM	1000 fluorescence units	approx 500 fluorescence units	energy-depletion protects C. albicans against Hst5	0.75 µM	induced the uptake of PI at much lower concentrations
